Measurements reported in PubChem BioAssay AID1918943 (Molecular Pharmacology Branch, DTP, NCI, 2023).

Test system: 855422-203-R-J1-PDC complex spheroid viability
Assay: Anticancer human tumor 855422-203-R-J1-PDC patient-derived bladder carcinoma cell line growth inhibition
Settings: for IC50: curve of first compound; for viability, T/C: stronger effect = lower value; active = viability on the fitted dose curve at most 10% of control; inactive = the rest
Outline: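 Drug combinations with the LSD1 inhibitor iadademstat tested on tumor cells co-cultured as spheroids with endothelial cells and mesenchymal stem cells. Concentrations descended in half-log increments from clinical Cmax or 10 microM.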
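Note: drug exposure lasted 7 days starting on day 3 after seeding.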
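Throughout, for viability, T/C: luminescence viability as percent of DMSO vehicle wells = 100%.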

CC[C@@]1(O)C(=O)OCc2c1cc1n(c2=O)Cc2cc3c(CN(C)C)c(O)ccc3nc2-1 + NC1CCC(NC2CC2c2ccccc2)CC1
6.91 nM: IC50 (second compound 0.316 µM)
inactive: viability, T/C (second compound 0.1 µM, first compound 0.000316 µM) 89.9% | viability, T/C (second compound 0.1 µM, first compound 0.001 µM) 93.6% | viability, T/C (second compound 0.1 µM, first compound 0.00316 µM) 82.5% | viability, T/C (second compound 0.1 µM, first compound 0.01 µM) 38.8% | viability, T/C (second compound 0.1 µM, first compound 0.0316 µM) 27.5% | viability, T/C (second compound 0.1 µM, first compound 0.1 µM) 22.9% | viability, T/C (second compound 0.316 µM, first compound 0.000316 µM) 90.9% | viability, T/C (second compound 0.316 µM, first compound 0.001 µM) 83.9% | viability, T/C (second compound 0.316 µM, first compound 0.00316 µM) 77.7% | viability, T/C (second compound 0.316 µM, first compound 0.01 µM) 36.8% | viability, T/C (second compound 0.316 µM, first compound 0.0316 µM) 24.9% | viability, T/C (second compound 0.316 µM, first compound 0.1 µM) 21.2% | viability, T/C (second compound 1 µM, first compound 0.000316 µM) 89.1% | viability, T/C (second compound 1 µM, first compound 0.001 µM) 80% | viability, T/C (second compound 1 µM, first compound 0.00316 µM) 78.5% | viability, T/C (second compound 1 µM, first compound 0.01 µM) 39.9% | viability, T/C (second compound 1 µM, first compound 0.0316 µM) 32.6% | viability, T/C (second compound 1 µM, first compound 0.1 µM) 21.4% | viability, T/C (second compound 3.16 µM, first compound 0.000316 µM) 77.4% | viability, T/C (second compound 3.16 µM, first compound 0.001 µM) 83.5% | viability, T/C (second compound 3.16 µM, first compound 0.00316 µM) 74.5% | viability, T/C (second compound 3.16 µM, first compound 0.01 µM) 37.1% | viability, T/C (second compound 3.16 µM, first compound 0.0316 µM) 25.5% | viability, T/C (second compound 3.16 µM, first compound 0.1 µM) 21.1% | viability, T/C (second compound 10 µM, first compound 0.000316 µM) 79.3% | viability, T/C (second compound 10 µM, first compound 0.001 µM) 79.2% | viability, T/C (second compound 10 µM, first compound 0.00316 µM) 66% | viability, T/C (second compound 10 µM, first compound 0.01 µM) 37.2% | viability, T/C (second compound 10 µM, first compound 0.0316 µM) 26.9% | viability, T/C (second compound 10 µM, first compound 0.1 µM) 15.9%
7.51 nM: IC50 (second compound 1 µM)
6.75 nM: IC50 (second compound 3.16 µM)
6.22 nM: IC50 (second compound 10 µM)
7.48 nM: IC50 (second compound 0.1 µM)

CCc1c2c(nc3ccc(O)cc13)-c1cc3c(c(=O)n1C2)COC(=O)[C@]3(O)CC + NC1CCC(NC2CC2c2ccccc2)CC1
active: viability, T/C (second compound 0.1 µM, first compound 0.03 µM) 9.64% | viability, T/C (second compound 0.1 µM, first compound 0.0949 µM) 6.14% | viability, T/C (second compound 0.1 µM, first compound 0.3 µM) 2.74% | viability, T/C (second compound 0.316 µM, first compound 0.03 µM) 9.27% | viability, T/C (second compound 0.316 µM, first compound 0.0949 µM) 5.32% | viability, T/C (second compound 0.316 µM, first compound 0.3 µM) 5.13% | viability, T/C (second compound 1 µM, first compound 0.03 µM) 8.94% | viability, T/C (second compound 1 µM, first compound 0.0949 µM) 7.12% | viability, T/C (second compound 1 µM, first compound 0.3 µM) 2.09% | viability, T/C (second compound 3.16 µM, first compound 0.03 µM) 9.39% | viability, T/C (second compound 3.16 µM, first compound 0.0949 µM) 4.78% | viability, T/C (second compound 3.16 µM, first compound 0.3 µM) 2.98% | viability, T/C (second compound 10 µM, first compound 0.00949 µM) 8.28% | viability, T/C (second compound 10 µM, first compound 0.03 µM) 8.25% | viability, T/C (second compound 10 µM, first compound 0.0949 µM) 4.8% | viability, T/C (second compound 10 µM, first compound 0.3 µM) 1.43%
inactive: viability, T/C (second compound 0.1 µM, first compound 0.000949 µM) 21.1% | viability, T/C (second compound 0.1 µM, first compound 0.003 µM) 16% | viability, T/C (second compound 0.1 µM, first compound 0.00949 µM) 11.9% | viability, T/C (second compound 0.316 µM, first compound 0.000949 µM) 22.6% | viability, T/C (second compound 0.316 µM, first compound 0.003 µM) 19.5% | viability, T/C (second compound 0.316 µM, first compound 0.00949 µM) 12.3% | viability, T/C (second compound 1 µM, first compound 0.000949 µM) 23.6% | viability, T/C (second compound 1 µM, first compound 0.003 µM) 17.3% | viability, T/C (second compound 1 µM, first compound 0.00949 µM) 13.2% | viability, T/C (second compound 3.16 µM, first compound 0.000949 µM) 22.1% | viability, T/C (second compound 3.16 µM, first compound 0.003 µM) 15.5% | viability, T/C (second compound 3.16 µM, first compound 0.00949 µM) 11.4% | viability, T/C (second compound 10 µM, first compound 0.000949 µM) 20.7% | viability, T/C (second compound 10 µM, first compound 0.003 µM) 12.2%
< 0.949 nM: IC50 (second compound 0.1 µM) | IC50 (second compound 0.316 µM) | IC50 (second compound 1 µM) | IC50 (second compound 3.16 µM) | IC50 (second compound 10 µM)
